The record followed here is ChEMBL document CHEMBL6078675, “Discovery of Ureido-Containing Alteropeptilides and Intramolecular Cyclized Alteramides in Pseudoalteromonas flavipulchra S16 by Promoter Engineering of Cryptic Biosynthetic Gene Clusters” (J Nat Prod, 2024).

The test system of one data set is DU-145. The experiment in a line: Cytotoxicity against human DU-145 cells assessed as inhibition of cell proliferation at 20 uM incubated for 24 hrs by CCK8 assay. Type of data set: functional, cell-based. (Tetrazolium assays rely on reduction of a dye to a coloured formazan, in cell work by metabolically active cells.)
The next data set has as its system MCF7. The experiment in a line: Cytotoxicity against human MCF7 cells assessed as inhibition of cell proliferation at 20 uM incubated for 24 hrs by CCK8 assay. The format is functional, cell-based.
A further data set has as its system HCT-116. The experiment in a line: Cytotoxicity against human HCT-116 cells assessed as inhibition of cell proliferation at 20 uM incubated for 24 hrs by CCK8 assay. Type of data set: functional, cell-based.
Another data set deals with K562. The experiment in a line: Cytotoxicity against human K562 cells assessed as inhibition of cell proliferation at 20 uM incubated for 24 hrs by CCK8 assay. The format is functional, cell-based.
Another data set has as its system L02. The experiment in a line: Cytotoxicity against human L02 cells assessed as inhibition of cell proliferation at 20 uM incubated for 24 hrs by CCK8 assay. The conditions noted are these: l02, 24 h. The format is toxicity, cell-based.
A further data set concerns HOS. The data set is described as follows: Cytotoxicity against human HOS cells assessed as inhibition of cell proliferation at 20 uM incubated for 24 hrs by CCK8 assay. The format is functional, cell-based.
Another data set relates to Bacillus subtilis. The data set is described as follows: Antibacterial activity against Bacillus subtilis ATCC 6633 at 1 mM at 20 uM incubated for 16 hrs by disk diffusion method. The format is functional, organism-based. A general note: A growth-free zone around the sample is the usual read-out of agar diffusion tests.
The test system of the next data set is PaTu 8988t. The data set is described as follows: Cytotoxicity against human PaTu 8988t cells assessed as inhibition of cell proliferation at 20 uM incubated for 24 hrs by CCK8 assay. The format is functional, cell-based.
The next data set relates to A549. The data set is described as follows: Cytotoxicity against human A549 cells assessed as inhibition of cell proliferation at 20 uM incubated for 24 hrs by CCK8 assay. The format is functional, cell-based.
The test system of data set [1] is RAW264.7. The experiment in a line: Anti-inflammatory activity against mouse RAW264.7 cells at 20 uM pretreated for 30 mins followed by LPS treatment for 24 hrs by Griess assay. The format is functional, cell-based. The conditions noted are these: time 24.5 hrs. On the technique in general: Nitrite, measured by Griess reagent, commonly stands in for NO production.

For another data set, the system named is HeLa. The experiment in a line: Cytotoxicity against human HeLa cells assessed as inhibition of cell proliferation at 20 uM incubated for 24 hrs by CCK8 assay. The format is functional, cell-based.
The next data set deals with A-375. The experiment in a line: Cytotoxicity against human A-375 cells assessed as inhibition of cell proliferation at 20 uM incubated for 24 hrs by CCK8 assay. The format is functional, cell-based.
In the next data set the test system is 786-0. The data set is described as follows: Cytotoxicity against human 786-0 cells assessed as inhibition of cell proliferation at 20 uM incubated for 24 hrs by CCK8 assay. Type of data set: functional, cell-based.
In the next data set the test system is 5637. The data set is described as follows: Cytotoxicity against human 5637 cells assessed as inhibition of cell proliferation at 20 uM incubated for 24 hrs by CCK8 assay. The format is functional, cell-based.
The next data set has as its system Staphylococcus aureus. The data set is described as follows: Antibacterial activity against Staphylococcus aureus ATCC 29213 at 1 mM at 20 uM incubated for 16 hrs by disk diffusion method. Type of data set: functional, organism-based.
Another data set has as its system HepG2. The data set is described as follows: Cytotoxicity against human HepG2 cells assessed as inhibition of cell proliferation at 20 uM incubated for 24 hrs by CCK8 assay. The format is functional, cell-based.
In a further data set the test system is GBC-SD. The data set is described as follows: Cytotoxicity against human GBC-SD cells assessed as inhibition of cell proliferation at 20 uM incubated for 24 hrs by CCK8 assay. Type of data set: functional, cell-based.
For a further data set, the system named is TE-1. The data set is described as follows: Cytotoxicity against human TE-1 cells assessed as inhibition of cell proliferation at 20 uM incubated for 24 hrs by CCK8 assay. Type of data set: functional, cell-based.
The test system of the next data set is SF-126. The experiment in a line: Cytotoxicity against human SF-126 cells assessed as inhibition of cell proliferation at 20 uM incubated for 24 hrs by CCK8 assay. Type of data set: functional, cell-based.
Data set [2] concerns RAW264.7. The data set is described as follows: Cytotoxicity against mouse RAW264.7 cells assessed as inhibition of cell proliferation at 20 uM incubated for 24 hrs by CCK8 assay. The format is functional, cell-based.
The next data set relates to Escherichia coli. The data set is described as follows: Antibacterial activity against Escherichia coli CGMCC 44102 at 1 mM at 20 uM incubated for 16 hrs by disk diffusion method. The format is functional, organism-based.
The test system of the next data set is CAL-62. The experiment in a line: Cytotoxicity against human CAL-62 cells assessed as inhibition of cell proliferation at 20 uM incubated for 24 hrs by CCK8 assay. Type of data set: functional, cell-based.
A further data set has as its system A673. The data set is described as follows: Cytotoxicity against human A673 cells assessed as inhibition of cell proliferation at 20 uM incubated for 24 hrs by CCK8 assay. Type of data set: functional, cell-based.
The subject of the next data set is MKN-45. The data set is described as follows: Cytotoxicity against human MKN-45 cells assessed as inhibition of cell proliferation at 20 uM incubated for 24 hrs by CCK8 assay. The format is functional, cell-based.

Activity calls are given as the source filed them. No cut-off for these calls is given here. Numbered stars: 1 amine (or outer) side, 2 acyl side, 3 side chain; on linkers, the order of the positions; unused ones are H or OH. Peptide text beside a SMILES is read from it. Trp(6-Br) = N[C@@H](Cc1c[nH]c2cc(Br)ccc12)C(=O)O; CO = O=C([*:1])[*:2]

Regarding `COC(=O)[C@@H](NC(=O)[C@H](Cc1c[nH]c2ccccc12)NC(=O)[C@H](Cc1c[nH]c2ccccc12)NC(=O)[C@@H](NC(=O)N[C@@H](Cc1c[nH]c2cc(Br)ccc12)C(=O)O)[C@@H](C)O)C(C)C` ({Trp(6-Br)-CO}-TWWV-OMe), the outcome in the data set on DU-145, with MCF7, in the data set on HCT-116, with K562, in the data set with HOS and in the data set on Bacillus subtilis was inactive. Also, the result in the data set with PaTu 8988t, with A549, in the data set with RAW264.7 [1], in the data set on HeLa, in the data set with A-375 and in the data set on 786-0 was inactive. For the same molecule, the result in the data set on 5637, with Staphylococcus aureus, with HepG2, in the data set on GBC-SD, in the data set on TE-1 and in the data set on SF-126 was inactive. The result with RAW264.7 [2], in the data set on Escherichia coli, in the data set on CAL-62, in the data set with A673 and with MKN-45 was inactive. Further, the Activity result in the data set on L02 is listed as “Non-toxic”.

With `COC(=O)[C@@H](NC(=O)[C@H](Cc1c[nH]c2ccccc12)NC(=O)[C@H](Cc1c[nH]c2ccccc12)NC(=O)[C@@H](NC(=O)N[C@@H](Cc1c[nH]c2ccccc12)C(=O)O)[C@@H](C)O)C(C)C` ({Trp-CO}-TWWV-OMe), the outcome with DU-145, with MCF7, in the data set on HCT-116, with K562, in the data set with HOS and in the data set on Bacillus subtilis was inactive. Also, the outcome in the data set with PaTu 8988t, in the data set on A549, in the data set with RAW264.7 [1], in the data set on HeLa, in the data set on A-375 and in the data set on 786-0 was inactive. The result in the data set on 5637, in the data set with Staphylococcus aureus, in the data set with HepG2, with GBC-SD, with TE-1 and with SF-126 was inactive. Besides, the outcome with RAW264.7 [2], in the data set with Escherichia coli, in the data set with CAL-62, with A673 and with MKN-45 was inactive. Moreover, the Activity result in the data set with L02 is given as “Non-toxic”.
